According to patent US12168008B2, “Oxabicycloheptanes for modulation of immune response” (LIXTE BIOTECHNOLOGY, INC., priority 2016, dated 2024):

What was measured:
clinical = type: in vivo, human; conditions: in vivo; for half-life: 2.33 mg/m2, T1/2
Experimental: The main objective was to determine the safety, tolerability, and maximum tolerated dose of LB-100 given intravenously daily for three consecutive days every 3 weeks. The secondary objectives were to document any evidence of potential anti-tumor activity and obtain pharmacokinetic data on LB-100 and a metabolite, endothall, in patients receiving LB-100 at the MTD (Quang et al., 2016).
The plasma concentrations of LB-100 and endothall were measured (Quang et al., 2016) prior to and over 4 hours after completion of the 2-hour infusion at the MTD of 2.33 mg/m2 of LB-100 on day 1 in one patient and on day 1 and 3 in two patients. […] Plasma concentrations of endothall were low throughout the infusion, being below the lower limit of detection (5 ng/mL) in one patient.

progressive solid tumors = assay: Phase I study: clinical activity (RECIST 1.1); type: in vivo, human
Experimental: Response to treatment was assessed using RECIST version 1.1. All patients with measurable disease, who completed 2 cycles of LB-100 and had at least 1 post-baseline tumor assessment, were evaluable for efficacy. Patients receiving any LB-100 were evaluable for safety. The severity of adverse events and laboratory abnormalities is reported according to NCI-CTCAE version 4.0 and coded using Medical Dictionary for Regulatory Activities.

CD8+ or CD4+ T cells = assay: Human allogeneic mixed lymphocyte reaction, T cells with monocyte-derived dendritic cells (Example 8); type: cell-based
Experimental: The effect of LB-100 on T-cells was assessed in human allogeneic mixed lymphocyte reactions, in which CD8+ or CD4+ T cells were co-cultured with […] monocyte-derived dendritic cells. […] The effect of LB-100 plus anti-PD-1 antibody was investigated on CD4+ T cells in the same assay.

[1] = tested on: tumor infiltrating lymphocytes; assay: Flow cytometry of tumor infiltrating lymphocytes, spleen and draining lymph node in CT26-bearing mice; type: in vivo, mouse
Experimental: The treatment effect was assessed on tumor infiltrating lymphocytes (FIGS. 23A-B). CT26 tumor-bearing mice were treated with LB-100 and/or anti-PD-1 antibodies as above. After 12 days of treatment, tumors were analyzed by FACS. […] In addition, given the known importance of PP2A in Treg, the effect of LB-100 and/or anti-PD-1 treatment was examined on the amount of Tregs present in the tumor. […] This effect is similar in degree to the effect on Tregs depletion by anti-PD-1 or the combination.
Enhanced activation of lymphocytes with combination treatment: To address the cellular mechanism mediating tumor rejection by the LB-100/aPD-1 combination, the status of the immune system in the secondary lymphoid organs and in the tumor were examined. Mice were implanted with CT26 tumors and treated with LB-100 and/or aPD-1 as described above. On day 3, after two treatments, the spleens, tumor draining lymph nodes (dLN) and tumors were harvested and analyzed by flow cytometry (FIG. 26-27). In the secondary lymphoid tissue, a greater activation of CD8+ T cells in mice treated with the combination regimen compared to controls was observed, as indicated by greater frequency of CD44+CD62L-CD8+ T cells (FIG. 26A-C). […] There was no difference in frequency of CD44+CD62L− subset in CD4+ T cells in both the spleen and dLN (FIGS. 28A and 29A). Immune check point markers, including expression of PD-1, CTLA4, TIM3 and Ox40 on CD8+ and CD4+ T cells were examined in the tumor draining lymph node and spleen (FIGS. 28 and 29).
Isolation of TILs—Mice were injected in the right thoracic flank with 0.5×10^6 CT26 cells and treated as above after tumors reached between 50-100 mm^3. After 2 treatments, mice were sacrificed and tumors excised. Tumors were subjected to mechanical disruption using a GentleMACS Dissociator (Miltenyi Biotec) in presence of enzymatic digestion using Tumor Dissociation Kit (Miltenyi Biotec). […] Cells were analyzed by flow cytometry (LSRII; BD Bioscience). […]

PP2A = PP2A phosphatase assay in activated T cells; type: cell-based, mouse; conditions: 3 hours after stimulation with CD3 and CD28; greater effect in CD8
Experimental: LB-100 inhibits PP2A activity and enhances mTORC1 activation: PP2A enzymatic activity of isolated CD4 and CD8 cells from mice splenocytes were measured 3 hours after in vitro stimulation with plated CD3 and soluble CD28.
PP2A phosphatase assay—Mouse CD4+ and CD8+ T cells were isolated with CD4 and CD8 isolation kit (StemCell) respectively. Cells were activated using immobilized anti-CD3 (10 ug/ml) and soluble anti-CD28 (2 ug/ml) for three hour. PP2A activity was then evaluated after immunoprecipitation using a malachite green phosphatase assay kit as per the manufacturer's instructions (EMD Millipore).

[2] = tested on: mTORC1, mTORC2 and PI(3)K-AKT pathways; assay: Phosphoflow of AKT and S6 in activated CD3 cells; type: cell-based, mouse; conditions: after 3 hours of activation
Experimental: After 3 hours of in vitro activation of isolated CD3 cells, the activity of mTORC1, mTORC2 and PI(3)K-AKT pathways were assessed by checking the phosphorylation of ribosomal S6 protein (S6), AKT at […] and AKT at Thr308 respectively. […] This difference was not observed in any of the 3 pathways at an early time point of 30 minutes after activation (FIG. 37).
Isolation of TILs—Mice were injected in the right thoracic flank with 0.5×10^6 CT26 cells and treated as above after tumors reached between 50-100 mm^3. After 2 treatments, mice were sacrificed and tumors excised. Tumors were subjected to mechanical disruption using a GentleMACS Dissociator (Miltenyi Biotec) in presence of enzymatic digestion using Tumor Dissociation Kit (Miltenyi Biotec). Intracellular cytokine staining, phosphoflow and flow cytometry—Suspensions containing T cells were stained with a fixable live/dead stain (Invitrogen) in PBS followed by surface antibody staining in FACS buffer (PBS with 0.5% BSA and 0.1% sodium azide). For intracellular staining, cells were stained for surface molecules following by fixation and permeabilization (eBioscience). For cytokine staining, cells were first stimulated with Cell Stimulation Cocktail (eBioscience) containing PMA/Ionomycin and protein transport inhibitor prior to undergoing staining. […] Cells were analyzed by flow cytometry (LSRII; BD Bioscience). […]

[3] = of 20 patients with measurable disease

For CN1CCN(C(=O)C2C(C(=O)O)[C@H]3CC[C@@H]2O3)CC1 (some centres unmarked) [LB-100], the half-life (clinical; female, human) was 1.35 h, the “pharmacokinetics of LB-100, in words” value (clinical) was “low clearance, low volume of distribution, and a short half-life” and the T1/2 (clinical; male, human, 2.33 mg/m2) was 0.95 h. The half-life (clinical; male, human) was 1.1 h, the “duration of partial response or stability of disease” value (shortened to “duration”) (progressive solid tumors; atypical carcinoid of the lung, 0.83 mg/m^2) was 5 cycles and the “duration” value (progressive solid tumors; breast cancer, 1.25 mg/m^2) was 4 cycles. The “duration” value (progressive solid tumors; chondrosarcoma, 3.1 mg/m^2) was 8 cycles, the “duration” value (progressive solid tumors; fibrosarcoma, started at 3.1 mg/m^2, two dose reductions) was 12 cycles and the “duration” value (progressive solid tumors; malignant thymoma, 1.75 mg/m^2) was 8 cycles. The “no progression of indicator lesion(s)” value (progressive solid tumors; [3]) was 16 patients, the “significant increases in the size of indicator lesion(s) by RECIST criteria” value (progressive solid tumors; [3]) was 3 patients and the “duration” value (progressive solid tumors; ovarian cancer, 1.75 mg/m^2) was 6 cycles. For the same compound, the “duration” value (progressive solid tumors; pancreatic cancer, 0.83 mg/m^2) was 15 cycles, the partial response (progressive solid tumors; pancreatic carcinoma, noted after 10 cycles, maintained 5 more cycles, of 20 patients) was “One and one” and the “duration” value (progressive solid tumors; testicular cancer, 1.25 mg/m^2) was 5 cycles. The “IFNγ secretion in CD4+ T cells” value (CD8+ or CD4+ T cells) was “increase”, the “T cell proliferation in CD8+ and CD4+ cells” value (CD8+ or CD4+ T cells) was “dose dependent increase” and the “Tbet in CD4+ T cells” value (CD8+ or CD4+ T cells) was “dose dependent increase”. For the same compound, the “co-stimulatory molecule OX40 expression on T cells” value (CD8+ or CD4+ T cells) was “dose dependent increase”, the “PD-1 expression on human CD4 T cells” value (CD8+ or CD4+ T cells; co-cultured with monocytes derived DC) was “reduced PD-1 expression” and the “Tregs in the tumor” value ([1]; after 12 days of treatment, control 14.7) was 2.1%. The “CD44+CD62L-CD8+ T cells in the spleen” value ([1]; day 3, after two treatments, control 13.0) was 16.6%, the “PD-1 expression in CD4+ and CD8+ TILs” value ([1]; mouse, in vivo) was “did not further alter PD-1 expression” and the “PP2A enzymatic activity in CD4 and CD8 cells” value (PP2A) was “dose dependent decrease”. For the same compound, the “activity of mTORC1 as measured by phosphorylation of S6” value [2] was “dose dependent increase” and the “mTORC2 and PI(3)K-AKT pathways (AKT phosphorylation)” value [2] was “minimal effect”.
